In a melting point compilation (Tetko et al.; mined from patent text by program, amines drawn as free bases though some values may be those of a salt):

| melting point | SMILES |
| --- | --- |
| 95 to 97 °C | CCOC(=O)c1ccc(NC(=O)NCCN2CCN=C2c2ccccn2)cc1 |
| 154 to 155 °C | CCOC1=C(C(=O)O)CN(C2CCCCC2)C1=O |
| 81 to 82 °C | CC(C)(C)OC(=O)CN1CC(c2cccs2)SCC(N)C1=O (stereo not drawn) |
| 150 to 156 °C | Nc1ccc2c(c1)Sc1ccccc1N2 |
| 120 °C | C=C(C)COc1ccc(Br)cc1CN(CC)c1ccc(C(=O)NS(=O)(=O)c2c(C)noc2C)nn1 |
| 246 to 248 °C | CCC(=O)NNc1ccnc2c(NC(=O)c3c(Cl)cccc3Cl)cccc12 |
| 167 to 168 °C | Cc1cccc(C(=O)Nc2c(C(O)(C(F)(F)F)C(F)(F)F)ccc3ccccc23)c1 |
| 87 to 89 °C | O=C(CN1C(=O)[C@H](Cl)[C@H]1[S@@](=O)Cc1ccccc1)NCCCCCCc1ccc(F)cc1 |
| 153 to 154 °C | Cc1ncc([N+](=O)[O-])n1CCN1C(=O)CC(C)(C)CC1=O |
| 76 to 78 °C | CC(C)(C)OC(=O)NCCCCC/C=C/C(=O)O |
| 145 to 146 °C | N#CCOc1coc2ccccc2c1=O |
| 172 to 173 °C | COc1cc(C)nc(NC(=O)NS(=O)(=O)c2ccccc2C(=O)Nc2nncs2)n1 |
| 89 to 92 °C | CC(C#CCn1ccnc1)N1CCN(C)C1=O (stereo not drawn) |
| 93 to 97 °C | Cc1ccc(C2(C=O)C3CC4CC(C3)CC2C4)cc1 (stereo not drawn) |
| 198 to 200 °C | CCOC(=O)Cn1c(C(=O)O)cc2cc(Cl)ccc21 |
| 245 to 250 °C | COc1cc2ncnc(NC3=CC(=O)C(N(C)C)=CC3=O)c2cc1OC |
| 200 to 205 °C | COc1cccc2sc(Sc3ccc4c(c3)CC[C@H]3N(C)C(=O)CC[C@]43C)nc12 |
| 234 to 235 °C | COc1c(NC(=O)c2cc3cccc(NC(=O)c4ccc(N)nc4)c3s2)cc(C(C)(C)C)cc1NS(C)(=O)=O |
| 82 to 84 °C | Cc1cc(CCCCCOc2ccc(C3NCCS3)cc2)on1 (stereo not drawn) |
| 185 to 225 °C | CCNc1nc(C)c(C(=O)c2ccc(N)c(N)c2)s1 |
| 90 to 91 °C | COC(=O)CCc1nc(-c2cccc(NC(=O)OC(C)(C)C)c2)no1 |
| 143 to 144 °C | COc1cc(OC)nc(Oc2cccc3c2C(=O)OC3Cl)n1 (stereo not drawn) |
| 53 to 54 °C | CCC(=C1SCCCS1)c1ccc(Oc2ccccc2)cc1 |
| 128 to 130 °C | CCOC(=O)c1cc(O)cc(O)c1 |

| melting point | SMILES |
| --- | --- |
| 269 to 273 °C | CNc1nccc2c1nnn2Cc1ccccc1 |
| 181 °C | CN1CCN(S(=O)(=O)c2cccc(NC(=O)c3cnn4c(C(F)(F)F)cc(-c5ccc(Cl)c(Cl)c5)nc34)c2)CC1 |
| 178 to 180 °C | CC(=O)CCCCC(=O)Nc1ccc(CC(NC(C)=O)C(=O)NCC(=O)OCc2ccccc2)cc1 (stereo not drawn) |
| 134 to 135 °C | CON(c1ccc([N+](=O)[O-])cc1C#N)S(=O)(=O)c1ccc(C(F)(F)F)cc1 |
| 212 to 213 °C | CCCCc1nc2c(N)nc3cccnc3c2n1CCCCN |
| 237 to 238 °C | COc1cc2cc(C=NO)c(Cl)nc2cc1OC |
| 143 to 145 °C | c1ccc(COc2ccc3c(ccn3Nc3ccncc3)c2)cc1 |
| 145 to 147 °C | Cn1ncc(NCCN2CCC(c3noc4cc(F)ccc34)CC2)c(Cl)c1=O |
| 135 to 137 °C | CCOC(=O)CN(c1cccc2cc(-c3nccs3)[nH]c12)S(=O)(=O)c1cccs1 |
| 88 to 90 °C | O=C(C=Cc1cccnc1)NCCCCC1CCN(Cc2ccccc2)CC1 |
| 113 to 115 °C | COc1ccc(-c2nc(Sc3ccccc3)n(Cc3ccccc3)c2-c2ccc(OC)cc2)cc1 |
| 202 to 205 °C | CCC(=O)c1ccc(-c2ccc(=O)[nH]n2)cc1 |
| 289 to 291 °C | COCCCNC(=O)C1CCN(C(=O)c2[nH]c(C)c(-c3nc4ccc(C(=O)c5ccccc5)cc4[nH]3)c2C)CC1 |
| 133 to 140 °C | O=C1C(=O)N(C2CCCCC2)C(=O)N1c1ccccc1 |
| 198 °C | CC(C)CN(C)c1cc2c(cc1C(F)(F)F)NC(=O)CC(c1cccc(-n3cncn3)c1)=N2 |
| 138 to 139 °C | Cc1ccc(-c2c(NS(=O)(=O)c3ccc(C(C)(C)COC4CCCCO4)cc3)ncnc2OCCOc2ncc(Br)cn2)cc1 (stereo not drawn) |
| 56 to 56.5 °C | C=C(C)C(=O)N(SC1CCCCC1)c1ccccc1 |
| 97 to 98 °C | CC(C)(C)OC(=O)N1CC(O)C(SCc2ccccc2)C1 (stereo not drawn) |
| 87 to 91 °C | CCc1ccccc1CCC(=O)O |
| 150 to 151 °C | O=C(Nc1ccc(C(F)(F)F)cc1)OC1CCCNC1 (stereo not drawn) |
| 89 to 91 °C | CCOC1CC2(C)C(CCC3C4CC=C(C(C)=O)C4(C)CC(=O)C32)CC1O (stereo not drawn) |
| 148 to 150 °C | CCCCNC(=O)[C@@H]1C[C@]2(NC(=O)N(CCCCl)C2=O)c2cc(F)ccc2O1 |
| 103 to 105 °C | CC1=C(C(=O)O)OCCO1 |
| 45 °C | Cc1sc(-n2cccc2)c(C#N)c1C |

| melting point | SMILES |
| --- | --- |
| 153 to 156 °C | Cc1nc2c(cc1C(=O)NC(=N)N)CCCCC2Cl (stereo not drawn) |
| 135 to 136 °C | COc1ccc(CSc2nnc(-c3ccc4occc4c3)o2)cc1C(F)(F)F |
| 51 to 53 °C | CCCCCCCCCCCCn1nnc(NC2CCCCC2)n1 |
| 161 to 163 °C | CC(O)CNc1c(Br)cnc2cc(Cl)ccc12 (stereo not drawn) |
| 141 to 142 °C | Cc1nc(-c2ccc3c(c2)CCCC3)c(CC(Cl)C(=O)O)o1 (stereo not drawn) |
| 93 to 96 °C | CCC(C)(C)c1ccc(OCCCCc2c(O)c(N)c3ccccc3c2C(N)=O)c(C(C)(C)CC)c1 |
| 120 to 122 °C | Cc1cccc(Nc2cc(Nc3cccc(OCC(O)CN(C)C)c3)ncn2)c1 (stereo not drawn) |
| 112 to 113 °C | CCOC(=O)C(Cc1c([N+](=O)[O-])ccc(C)c1C)(NC(C)=O)C(=O)OCC |
| 225 to 226 °C | Nc1nc2c(cnn2CCc2ccccc2)c2nc(-c3ccco3)nn12 |
| > 250 °C | O=c1[nH]c(N2CCOCC2)nc2c1CC(S(=O)(=O)c1ccccc1)CC2 (stereo not drawn) |
| 125 to 126 °C | O=C(O)CCCn1ccnc1 |
| 193 to 195 °C | NS(=O)(=O)c1ccc(-c2cnn(CC(F)(F)F)c(=O)c2-c2ccc(F)cc2)cc1 |
| 175 to 176 °C | CC1Nc2ccc(-c3csc(C#N)c3)cc2C(C)(C)O1 (stereo not drawn) |
| 102 to 103 °C | Oc1cc(COCc2ccccc2)ncn1 |
| 245 to 246 °C | CCn1cc(C(=O)O)c(=O)c2ccc(F)c(C)c21 |
| 260 °C | NS(=O)(=O)c1cccc(NC(=O)c2cnn3c(C(F)(F)F)cc(-c4ccc(Cl)cc4)nc23)c1 |
| 218 to 220 °C | COc1cc(Nc2c(C#N)cnc3cc(-c4ccc(CN5CCCCC5)cc4)sc23)c(Cl)cc1Cl |
| 80 to 81 °C | CCCCS(=O)(=O)Nc1ccc(I)cc1 |
| 184 to 186 °C | Nc1nnc(SCC(CS(=O)(=O)c2ccc(-c3ccc(Cl)cc3)cc2)C(=O)O)s1 (stereo not drawn) |
| 186 to 188 °C | COc1cc2c(c(C(C)C)c1OC)C(=O)NS2(=O)=O |
| 118 to 120 °C | NC(CO)(CO)CCc1ccc(C(=O)CCCCCc2ccccc2)cc1 |
| 93 to 96 °C | CCCCCCCCCCCCCCCCCC(O)c1ccc(C(=O)O)c(Cl)c1 (stereo not drawn) |

| SMILES | melting point |
| --- | --- |
| OC(c1cccc(F)c1)(c1cccc(F)c1)C1CCNCC1 | 117 to 118 °C |
| CCOC(=O)CCN1C(=O)C(NC(=O)Nc2ccc(Cl)cc2)N=C(c2ccccc2)c2ccccc21 (stereo not drawn) | 251 to 253 °C |
| N#Cc1c(Cl)cc(Cn2nnc(C(N)=O)c2N)cc1Cl | 238 to 240 °C |
